Laboratory results published in the NIST ThermoML archive (doi:10.1021/je034087q).
± gives the expanded uncertainty stated by the source.

Assay: xn = mol fraction of the nth substance listed

`CC(C)=O` [acetone] + O=C=O showed a mass density (328.15 K, 12970 kPa, Fluid (supercritical or subcritical phases), x2 = 0.902) of 737 ± 5 kg/m3, a mass density (328.15 K, 13310 kPa, Fluid (supercritical or subcritical phases), x2 = 0.902) of 739 ± 5 kg/m3 and a mass density (328.15 K, 13640 kPa, Fluid (supercritical or subcritical phases), x2 = 0.902) of 748 ± 5 kg/m3. The mass density (328.15 K, 13900 kPa, Fluid (supercritical or subcritical phases), x2 = 0.902) was 748 ± 5 kg/m3, the mass density (328.15 K, 14180 kPa, Fluid (supercritical or subcritical phases), x2 = 0.902) was 754 ± 5 kg/m3 and the mass density (328.15 K, 14600 kPa, Fluid (supercritical or subcritical phases), x2 = 0.902) was 758 ± 5 kg/m3. For the same compound, the mass density (328.15 K, 14820 kPa, Fluid (supercritical or subcritical phases), x2 = 0.902) was 761 ± 5 kg/m3, the mass density (328.15 K, Liquid, Other PVT measurement, x2 = 0.902) was 626 ± 2 kg/m3 and the mass density (333.15 K, 9750 kPa, Fluid (supercritical or subcritical phases), x2 = 0.902) was 573 ± 4 kg/m3. For the same compound, the mass density (333.15 K, 9830 kPa, Fluid (supercritical or subcritical phases), x2 = 0.902) was 579 ± 4 kg/m3, the mass density (333.15 K, 9880 kPa, Fluid (supercritical or subcritical phases), x2 = 0.902) was 582 ± 4 kg/m3 and the mass density (333.15 K, 9920 kPa, Fluid (supercritical or subcritical phases), x2 = 0.902) was 585 ± 4 kg/m3. It also gave a mass density (333.15 K, 9990 kPa, Fluid (supercritical or subcritical phases), x2 = 0.902) of 590 ± 4 kg/m3, a mass density (333.15 K, 10050 kPa, Fluid (supercritical or subcritical phases), x2 = 0.902) of 594 ± 4 kg/m3 and a mass density (333.15 K, 10100 kPa, Fluid (supercritical or subcritical phases), x2 = 0.902) of 599 ± 4 kg/m3. It also gave a mass density (333.15 K, 10180 kPa, Fluid (supercritical or subcritical phases), x2 = 0.902) of 603 ± 4 kg/m3, a mass density (333.15 K, 10250 kPa, Fluid (supercritical or subcritical phases), x2 = 0.902) of 607 ± 4 kg/m3 and a mass density (333.15 K, 10320 kPa, Fluid (supercritical or subcritical phases), x2 = 0.902) of 610 ± 4 kg/m3. It also gave a mass density (333.15 K, 10380 kPa, Fluid (supercritical or subcritical phases), x2 = 0.902) of 614 ± 4 kg/m3, a mass density (333.15 K, 10500 kPa, Fluid (supercritical or subcritical phases), x2 = 0.902) of 619 ± 4 kg/m3 and a mass density (333.15 K, 10610 kPa, Fluid (supercritical or subcritical phases), x2 = 0.902) of 626 ± 4 kg/m3. It also gave a mass density (333.15 K, 10750 kPa, Fluid (supercritical or subcritical phases), x2 = 0.902) of 631 ± 4 kg/m3, a mass density (333.15 K, 10850 kPa, Fluid (supercritical or subcritical phases), x2 = 0.902) of 636 ± 4 kg/m3 and a mass density (333.15 K, 10920 kPa, Fluid (supercritical or subcritical phases), x2 = 0.902) of 641 ± 4 kg/m3. It also gave a mass density (333.15 K, 11080 kPa, Fluid (supercritical or subcritical phases), x2 = 0.902) of 646 ± 4 kg/m3, a mass density (333.15 K, 11170 kPa, Fluid (supercritical or subcritical phases), x2 = 0.902) of 650 ± 4 kg/m3 and a mass density (333.15 K, 11280 kPa, Fluid (supercritical or subcritical phases), x2 = 0.902) of 654 ± 4 kg/m3. The mass density (333.15 K, 11490 kPa, Fluid (supercritical or subcritical phases), x2 = 0.902) was 660 ± 4 kg/m3, the mass density (333.15 K, 11690 kPa, Fluid (supercritical or subcritical phases), x2 = 0.902) was 666 ± 4 kg/m3 and the mass density (333.15 K, 11820 kPa, Fluid (supercritical or subcritical phases), x2 = 0.902) was 671 ± 4 kg/m3. The mass density (333.15 K, 12000 kPa, Fluid (supercritical or subcritical phases), x2 = 0.902) was 676 ± 4 kg/m3, the mass density (333.15 K, 12230 kPa, Fluid (supercritical or subcritical phases), x2 = 0.902) was 682 ± 4 kg/m3 and the mass density (333.15 K, 12390 kPa, Fluid (supercritical or subcritical phases), x2 = 0.902) was 687 ± 4 kg/m3. The mass density (333.15 K, 12560 kPa, Fluid (supercritical or subcritical phases), x2 = 0.902) was 690 ± 4 kg/m3, the mass density (333.15 K, 12840 kPa, Fluid (supercritical or subcritical phases), x2 = 0.902) was 697 ± 4 kg/m3 and the mass density (333.15 K, 13010 kPa, Fluid (supercritical or subcritical phases), x2 = 0.902) was 700 ± 4 kg/m3. The mass density (333.15 K, 13280 kPa, Fluid (supercritical or subcritical phases), x2 = 0.902) was 705 ± 4 kg/m3, the mass density (333.15 K, 13630 kPa, Fluid (supercritical or subcritical phases), x2 = 0.902) was 711 ± 4 kg/m3 and the mass density (333.15 K, 13800 kPa, Fluid (supercritical or subcritical phases), x2 = 0.902) was 716 ± 4 kg/m3. The mass density (333.15 K, 13980 kPa, Fluid (supercritical or subcritical phases), x2 = 0.902) was 719 ± 4 kg/m3, the mass density (333.15 K, 14280 kPa, Fluid (supercritical or subcritical phases), x2 = 0.902) was 723 ± 5 kg/m3 and the mass density (333.15 K, 14460 kPa, Fluid (supercritical or subcritical phases), x2 = 0.902) was 726 ± 5 kg/m3. For the same compound, the mass density (333.15 K, 14830 kPa, Fluid (supercritical or subcritical phases), x2 = 0.902) was 733 ± 5 kg/m3, the mass density (333.15 K, Liquid, Other PVT measurement, x2 = 0.902) was 570 ± 2 kg/m3 and the mass density (335.15 K, 9800 kPa, Fluid (supercritical or subcritical phases), x2 = 0.909) was 532 ± 3 kg/m3. For the same compound, the mass density (335.15 K, 9820 kPa, Fluid (supercritical or subcritical phases), x2 = 0.909) was 535 ± 3 kg/m3, the mass density (335.15 K, 9860 kPa, Fluid (supercritical or subcritical phases), x2 = 0.909) was 539 ± 3 kg/m3 and the mass density (335.15 K, 9900 kPa, Fluid (supercritical or subcritical phases), x2 = 0.909) was 543 ± 3 kg/m3. It also gave a mass density (335.15 K, 9940 kPa, Fluid (supercritical or subcritical phases), x2 = 0.909) of 548 ± 3 kg/m3, a mass density (335.15 K, 10000 kPa, Fluid (supercritical or subcritical phases), x2 = 0.909) of 551 ± 3 kg/m3 and a mass density (335.15 K, 10050 kPa, Fluid (supercritical or subcritical phases), x2 = 0.909) of 558 ± 4 kg/m3. For the same compound, the mass density (335.15 K, 10100 kPa, Fluid (supercritical or subcritical phases), x2 = 0.909) was 562 ± 4 kg/m3, the mass density (335.15 K, 10160 kPa, Fluid (supercritical or subcritical phases), x2 = 0.909) was 567 ± 4 kg/m3 and the mass density (335.15 K, 10220 kPa, Fluid (supercritical or subcritical phases), x2 = 0.909) was 572 ± 4 kg/m3. The mass density (335.15 K, 10280 kPa, Fluid (supercritical or subcritical phases), x2 = 0.909) was 578 ± 4 kg/m3.
